Reference: PubChem BioAssay (NCI)
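Exposure lasted 48 hours, with cells grown in 96-well plates and compounds tested at five concentrations. TGI denotes the concentration required for complete inhibition of growth.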

Legend:
Experiment in all cases: NCI anticancer screen, dose series, 48 h
OVCAR-8 ovarian = tested on: OVCAR-8 ovarian
SW-620 colon = tested on: SW-620 colon
HCT-116 colon = tested on: HCT-116 colon
DU-145 prostate = tested on: DU-145 prostate
HOP-92 NSCLC = tested on: HOP-92 NSCLC
SNB-19 CNS = tested on: SNB-19 CNS
UO-31 renal = tested on: UO-31 renal
T-47D breast = tested on: T-47D breast
SK-OV-3 ovarian = tested on: SK-OV-3 ovarian
MDA-MB-231 breast = tested on: MDA-MB-231 breast
CCRF-CEM leukemia = tested on: CCRF-CEM leukemia
SF-539 CNS = tested on: SF-539 CNS
MDA-N = tested on: MDA-N
SK-MEL-28 melanoma = tested on: SK-MEL-28 melanoma
MDA-MB-435 = tested on: MDA-MB-435
K-562 leukemia = tested on: K-562 leukemia
HL-60(TB) leukemia = tested on: HL-60(TB) leukemia
EKVX NSCLC = tested on: EKVX NSCLC
SK-MEL-2 melanoma = tested on: SK-MEL-2 melanoma
CAKI-1 renal = tested on: CAKI-1 renal
HOP-62 NSCLC = tested on: HOP-62 NSCLC
IGROV1 ovarian = tested on: IGROV1 ovarian
SNB-75 CNS = tested on: SNB-75 CNS
OVCAR-4 ovarian = tested on: OVCAR-4 ovarian
LOX IMVI melanoma = tested on: LOX IMVI melanoma
OVCAR-5 ovarian = tested on: OVCAR-5 ovarian
ACHN renal = tested on: ACHN renal
M14 melanoma = tested on: M14 melanoma
A498 renal = tested on: A498 renal
KM12 colon = tested on: KM12 colon
NCI/ADR-RES ovarian = tested on: NCI/ADR-RES ovarian
HT29 colon = tested on: HT29 colon
COLO 205 colon = tested on: COLO 205 colon
UACC-62 melanoma = tested on: UACC-62 melanoma
HCC-2998 colon = tested on: HCC-2998 colon
UACC-257 melanoma = tested on: UACC-257 melanoma
MOLT-4 leukemia = tested on: MOLT-4 leukemia
PC-3 prostate = tested on: PC-3 prostate
U251 CNS = tested on: U251 CNS
MCF7 breast = tested on: MCF7 breast
MALME-3M melanoma = tested on: MALME-3M melanoma
786-0 renal = tested on: 786-0 renal
NCI-H226 lung = tested on: NCI-H226 lung
SK-MEL-5 melanoma = tested on: SK-MEL-5 melanoma
A549 NSCLC = tested on: A549 NSCLC
NCI-H522 lung = tested on: NCI-H522 lung
SF-295 CNS = tested on: SF-295 CNS
HCT-15 colon = tested on: HCT-15 colon
TK-10 renal = tested on: TK-10 renal
RPMI-8226 leukemia = tested on: RPMI-8226 leukemia
SN12C renal = tested on: SN12C renal
OVCAR-3 ovarian = tested on: OVCAR-3 ovarian
NCI-H23 lung = tested on: NCI-H23 lung
RXF 393 renal = tested on: RXF 393 renal
SF-268 CNS = tested on: SF-268 CNS
SR leukemia = tested on: SR leukemia
HS 578T breast = tested on: HS 578T breast
NCI-H460 lung = tested on: NCI-H460 lung

SMILES: C=C(C(=O)OC)[C@H]1CC/C(C)=C/CC/C(C)=C/CC[C@@]2(C)O[C@@H]2C1
- TGI (OVCAR-8 ovarian): 31.4 µM
- TGI (SW-620 colon): 37.2 µM
- TGI (HCT-116 colon): 28.7 µM
- TGI (DU-145 prostate): 58.2 µM
- TGI (HOP-92 NSCLC): 35.1 µM
- TGI (SNB-19 CNS): > 100 µM
- TGI (UO-31 renal): 55 µM
- TGI (T-47D breast): 44.7 µM
- TGI (SK-OV-3 ovarian): > 100 µM
- TGI (MDA-MB-231 breast): 33.6 µM
- TGI (CCRF-CEM leukemia): 30 µM
- TGI (SF-539 CNS): 32.2 µM
- TGI (MDA-N): 36.4 µM
- TGI (SK-MEL-28 melanoma): > 100 µM
- TGI (MDA-MB-435): 58.5 µM
- TGI (K-562 leukemia): 25.7 µM
- TGI (HL-60(TB) leukemia): 30.9 µM
- TGI (EKVX NSCLC): 39.5 µM
- TGI (SK-MEL-2 melanoma): 29.9 µM
- TGI (CAKI-1 renal): 28.1 µM
- TGI (HOP-62 NSCLC): 42.5 µM
- TGI (IGROV1 ovarian): 31.5 µM
- TGI (SNB-75 CNS): > 100 µM
- TGI (OVCAR-4 ovarian): > 100 µM
- TGI (LOX IMVI melanoma): 28.8 µM
- TGI (OVCAR-5 ovarian): 48.2 µM
- TGI (ACHN renal): 34.5 µM
- TGI (M14 melanoma): 46.5 µM
- TGI (A498 renal): 62.2 µM
- TGI (KM12 colon): 37.6 µM
- TGI (NCI/ADR-RES ovarian): 52.1 µM
- TGI (HT29 colon): 34.4 µM
- TGI (COLO 205 colon): 28.6 µM
- TGI (UACC-62 melanoma): 26 µM
- TGI (HCC-2998 colon): 30.8 µM
- TGI (UACC-257 melanoma): 62.3 µM
- TGI (MOLT-4 leukemia): 35.5 µM
- TGI (PC-3 prostate): 46.4 µM
- TGI (U251 CNS): 44 µM
- TGI (MCF7 breast): 37.8 µM
- TGI (MALME-3M melanoma): 63.3 µM
- TGI (786-0 renal): 29.2 µM
- TGI (NCI-H226 lung): 44.4 µM
- TGI (SK-MEL-5 melanoma): 22 µM
- TGI (A549 NSCLC): 37.4 µM
- TGI (NCI-H522 lung): 38.5 µM
- TGI (SF-295 CNS): 29.6 µM
- TGI (HCT-15 colon): 31.7 µM
- TGI (TK-10 renal): 59 µM
- TGI (RPMI-8226 leukemia): 32.8 µM
- TGI (SN12C renal): 31.2 µM
- TGI (OVCAR-3 ovarian): 34.4 µM
- TGI (NCI-H23 lung): 68.1 µM
- TGI (RXF 393 renal): 28.8 µM

SMILES: C=CCn1c(=O)c2ccccc2[n+]2c(-c3cccc([N+](=O)[O-])c3)csc12
- TGI (OVCAR-8 ovarian): > 100 µM
- TGI (SW-620 colon): > 100 µM
- TGI (HCT-116 colon): > 100 µM
- TGI (DU-145 prostate): > 100 µM
- TGI (HOP-92 NSCLC): > 100 µM
- TGI (SF-268 CNS): > 100 µM
- TGI (SNB-19 CNS): > 100 µM
- TGI (UO-31 renal): > 100 µM
- TGI (T-47D breast): 72.8 µM
- TGI (SK-OV-3 ovarian): > 100 µM
- TGI (MDA-MB-231 breast): > 100 µM
- TGI (CCRF-CEM leukemia): > 100 µM
- TGI (SF-539 CNS): > 100 µM
- TGI (MDA-N): > 100 µM
- TGI (SK-MEL-28 melanoma): > 100 µM
- TGI (MDA-MB-435): > 100 µM
- TGI (K-562 leukemia): > 100 µM
- TGI (HL-60(TB) leukemia): 58.2 µM
- TGI (EKVX NSCLC): > 100 µM
- TGI (SK-MEL-2 melanoma): > 100 µM
- TGI (CAKI-1 renal): > 100 µM
- TGI (SR leukemia): 98.3 µM
- TGI (HOP-62 NSCLC): > 100 µM
- TGI (IGROV1 ovarian): > 100 µM
- TGI (SNB-75 CNS): 69.9 µM
- TGI (OVCAR-4 ovarian): > 100 µM
- TGI (LOX IMVI melanoma): > 100 µM
- TGI (OVCAR-5 ovarian): > 100 µM
- TGI (ACHN renal): > 100 µM
- TGI (M14 melanoma): > 100 µM
- TGI (A498 renal): > 100 µM
- TGI (KM12 colon): > 100 µM
- TGI (NCI/ADR-RES ovarian): 68.2 µM
- TGI (HT29 colon): > 100 µM
- TGI (COLO 205 colon): 98.6 µM
- TGI (UACC-62 melanoma): > 100 µM
- TGI (HCC-2998 colon): > 100 µM
- TGI (UACC-257 melanoma): > 100 µM
- TGI (HS 578T breast): > 100 µM
- TGI (MOLT-4 leukemia): > 100 µM
- TGI (PC-3 prostate): > 100 µM
- TGI (U251 CNS): > 100 µM
- TGI (MCF7 breast): > 100 µM
- TGI (MALME-3M melanoma): > 100 µM
- TGI (786-0 renal): > 100 µM
- TGI (NCI-H226 lung): > 100 µM
- TGI (SK-MEL-5 melanoma): 36.5 µM
- TGI (A549 NSCLC): > 100 µM
- TGI (NCI-H460 lung): > 100 µM
- TGI (NCI-H522 lung): > 100 µM
- TGI (SF-295 CNS): > 100 µM
- TGI (TK-10 renal): > 100 µM
- TGI (RPMI-8226 leukemia): > 100 µM
- TGI (SN12C renal): > 100 µM
- TGI (OVCAR-3 ovarian): > 100 µM
- TGI (NCI-H23 lung): > 100 µM
- TGI (RXF 393 renal): > 100 µM
